Test results taken from patent US12077503B2, “Substituted cyclic amides and their use as herbicides” (FMC CORPORATION, priority 2015, dated 2024).

Tests used:
Assay in all cases: Test C preemergence
Format in all cases: in vivo
Settings in all cases: scale 0 to 100, 0 no effect, 100 complete control
[1] = test system: barnyardgrass (Echinochloa crus-galli)
How it was run: (§1)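 After treatment with surfactant-containing formulations, either preemergence to seeds in loam-sand soil or postemergence to potted seedlings at 2–18 cm, plants were kept 13–15 d in a greenhouse. Observers then compared them with controls and assigned ratings, 0 signifying no effect and 100 complete control.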

[2] = test system: blackgrass (Alopecurus myosuroides)
How it was run: as §1

[3] = test system: corn (Zea mays)
How it was run: as §1

[4] = test system: crabgrass, large (large crabgrass, Digitaria sanguinalis)
How it was run: as §1

[5] = test system: foxtail, giant (giant foxtail, Setaria faberii)
How it was run: as §1

[6] = test system: lambsquarters (Chenopodium album)
How it was run: as §1

[7] = test system: morningglory (Ipomoea coccinea)
How it was run: as §1

[8] = test system: nutsedge, yellow (yellow nutsedge, Cyperus esculentus)
How it was run: as §1

[9] = test system: oilseed rape (Brassica napus)
How it was run: as §1

[10] = test system: pigweed (Amaranthus retroflexus)
How it was run: as §1

[11] = test system: ragweed (common ragweed, Ambrosia elatior)
How it was run: as §1

[12] = test system: ryegrass, Italian (Italian ryegrass, Lolium multiflorum)
How it was run: as §1

[13] = test system: soybean (Glycine max)
How it was run: as §1

[14] = test system: velvetleaf (Abutilon theophrasti)
How it was run: as §1

[15] = test system: waterhemp (common waterhemp, Amaranthus rudis)
How it was run: as §1

[16] = test system: wheat (winter wheat, Triticum aestivum)
How it was run: as §1

[17] = test system: Galium (catchweed bedstraw, Galium aparine)
How it was run: as §1

CN1CC(c2cccc(OC(F)(F)C(F)F)c2)C(C(=O)Nc2ccc(F)cc2F)C1=O (stereo not drawn) [Compound 393]
Plant response rating, Barnyardgrass ([1]; 31 g ai/ha): 90
Plant response rating, Barnyardgrass ([1]; 62 g ai/ha): 90
Plant response rating, Barnyardgrass ([1]; 125 g ai/ha): 95
Plant response rating, Barnyardgrass ([1]; 250 g ai/ha): 95
Plant response rating, Blackgrass ([2]; 31 g ai/ha): 10
Plant response rating, Blackgrass ([2]; 62 g ai/ha): 55
Plant response rating, Blackgrass ([2]; 125 g ai/ha): 70
Plant response rating, Blackgrass ([2]; 250 g ai/ha): 90
Plant response rating, Corn ([3]; 31 g ai/ha): 0
Plant response rating, Corn ([3]; 62 g ai/ha): 40
Plant response rating, Corn ([3]; 125 g ai/ha): 55
Plant response rating, Corn ([3]; 250 g ai/ha): 70
Plant response rating, Crabgrass, Large ([4]; 31 g ai/ha): 95
Plant response rating, Crabgrass, Large ([4]; 62 g ai/ha): 95
Plant response rating, Crabgrass, Large ([4]; 125 g ai/ha): 95
Plant response rating, Crabgrass, Large ([4]; 250 g ai/ha): 98
Plant response rating, Foxtail, Giant ([5]; 31 g ai/ha): 90
Plant response rating, Foxtail, Giant ([5]; 62 g ai/ha): 95
Plant response rating, Foxtail, Giant ([5]; 125 g ai/ha): 95
Plant response rating, Foxtail, Giant ([5]; 250 g ai/ha): 95
Plant response rating, Lambsquarters ([6]; 31 g ai/ha): 55
Plant response rating, Lambsquarters ([6]; 62 g ai/ha): 75
Plant response rating, Lambsquarters ([6]; 125 g ai/ha): 75
Plant response rating, Lambsquarters ([6]; 250 g ai/ha): 85
Plant response rating, Morningglory ([7]; 31 g ai/ha): 0
Plant response rating, Morningglory ([7]; 62 g ai/ha): 10
Plant response rating, Morningglory ([7]; 125 g ai/ha): 10
Plant response rating, Morningglory ([7]; 250 g ai/ha): 10
Plant response rating, Nutsedge, Yellow ([8]; 31 g ai/ha): 0
Plant response rating, Nutsedge, Yellow ([8]; 62 g ai/ha): 0
Plant response rating, Nutsedge, Yellow ([8]; 125 g ai/ha): 0
Plant response rating, Nutsedge, Yellow ([8]; 250 g ai/ha): 0
Plant response rating, Oilseed Rape ([9]; 31 g ai/ha): 0
Plant response rating, Oilseed Rape ([9]; 62 g ai/ha): 40
Plant response rating, Oilseed Rape ([9]; 125 g ai/ha): 80
Plant response rating, Oilseed Rape ([9]; 250 g ai/ha): 85
Plant response rating, Pigweed ([10]; 31 g ai/ha): 70
Plant response rating, Pigweed ([10]; 62 g ai/ha): 75
Plant response rating, Pigweed ([10]; 125 g ai/ha): 85
Plant response rating, Pigweed ([10]; 250 g ai/ha): 90
Plant response rating, Ragweed ([11]; 31 g ai/ha): 35
Plant response rating, Ragweed ([11]; 62 g ai/ha): 35
Plant response rating, Ragweed ([11]; 125 g ai/ha): 40
Plant response rating, Ragweed ([11]; 250 g ai/ha): 65
Plant response rating, Ryegrass, Italian ([12]; 62 g ai/ha): 30
Plant response rating, Ryegrass, Italian ([12]; 125 g ai/ha): 30
Plant response rating, Ryegrass, Italian ([12]; 250 g ai/ha): 45
Plant response rating, Soybean ([13]; 62 g ai/ha): 10
Plant response rating, Soybean ([13]; 125 g ai/ha): 15
Plant response rating, Soybean ([13]; 250 g ai/ha): 30
Plant response rating, Velvetleaf ([14]; 62 g ai/ha): 35
Plant response rating, Velvetleaf ([14]; 125 g ai/ha): 50
Plant response rating, Velvetleaf ([14]; 250 g ai/ha): 80
Plant response rating, Waterhemp ([15]; 62 g ai/ha): 80
Plant response rating, Waterhemp ([15]; 125 g ai/ha): 85
Plant response rating, Waterhemp ([15]; 250 g ai/ha): 90
Plant response rating, Wheat ([16]; 62 g ai/ha): 20
Plant response rating, Wheat ([16]; 125 g ai/ha): 35
Plant response rating, Wheat ([16]; 250 g ai/ha): 70

CN1CC(c2cccc(C(F)(F)F)c2)C(C)(C(=O)Nc2ccccc2F)C1=O (stereo not drawn) [Compound 428]
Plant response rating, Barnyardgrass ([1]; 31 g ai/ha): 90
Plant response rating, Barnyardgrass ([1]; 62 g ai/ha): 95
Plant response rating, Barnyardgrass ([1]; 125 g ai/ha): 95
Plant response rating, Barnyardgrass ([1]; 250 g ai/ha): 98
Plant response rating, Blackgrass ([2]; 31 g ai/ha): 0
Plant response rating, Blackgrass ([2]; 62 g ai/ha): 0
Plant response rating, Blackgrass ([2]; 125 g ai/ha): 30
Plant response rating, Blackgrass ([2]; 250 g ai/ha): 30
Plant response rating, Corn ([3]; 31 g ai/ha): 15
Plant response rating, Corn ([3]; 62 g ai/ha): 25
Plant response rating, Corn ([3]; 125 g ai/ha): 55
Plant response rating, Corn ([3]; 250 g ai/ha): 70
Plant response rating, Crabgrass, Large ([4]; 31 g ai/ha): 90
Plant response rating, Crabgrass, Large ([4]; 62 g ai/ha): 95
Plant response rating, Crabgrass, Large ([4]; 125 g ai/ha): 98
Plant response rating, Crabgrass, Large ([4]; 250 g ai/ha): 98
Plant response rating, Foxtail, Giant ([5]; 31 g ai/ha): 85
Plant response rating, Foxtail, Giant ([5]; 62 g ai/ha): 90
Plant response rating, Foxtail, Giant ([5]; 125 g ai/ha): 90
Plant response rating, Foxtail, Giant ([5]; 250 g ai/ha): 95
Plant response rating, Lambsquarters ([6]; 31 g ai/ha): 0
Plant response rating, Lambsquarters ([6]; 62 g ai/ha): 10
Plant response rating, Lambsquarters ([6]; 125 g ai/ha): 35
Plant response rating, Lambsquarters ([6]; 250 g ai/ha): 65
Plant response rating, Morningglory ([7]; 31 g ai/ha): 0
Plant response rating, Morningglory ([7]; 62 g ai/ha): 0
Plant response rating, Morningglory ([7]; 125 g ai/ha): 0
Plant response rating, Morningglory ([7]; 250 g ai/ha): 0
Plant response rating, Nutsedge, Yellow ([8]; 31 g ai/ha): 0
Plant response rating, Nutsedge, Yellow ([8]; 62 g ai/ha): 0
Plant response rating, Nutsedge, Yellow ([8]; 125 g ai/ha): 0
Plant response rating, Nutsedge, Yellow ([8]; 250 g ai/ha): 30
Plant response rating, Oilseed Rape ([9]; 31 g ai/ha): 0
Plant response rating, Oilseed Rape ([9]; 62 g ai/ha): 0
Plant response rating, Oilseed Rape ([9]; 125 g ai/ha): 0
Plant response rating, Oilseed Rape ([9]; 250 g ai/ha): 15
Plant response rating, Pigweed ([10]; 31 g ai/ha): 10
Plant response rating, Pigweed ([10]; 62 g ai/ha): 0
Plant response rating, Pigweed ([10]; 125 g ai/ha): 0
Plant response rating, Pigweed ([10]; 250 g ai/ha): 40
Plant response rating, Ragweed ([11]; 31 g ai/ha): 0
Plant response rating, Ragweed ([11]; 62 g ai/ha): 0
Plant response rating, Ragweed ([11]; 125 g ai/ha): 0
Plant response rating, Ragweed ([11]; 250 g ai/ha): 0
Plant response rating, Ryegrass, Italian ([12]; 62 g ai/ha): 40
Plant response rating, Ryegrass, Italian ([12]; 125 g ai/ha): 40
Plant response rating, Ryegrass, Italian ([12]; 250 g ai/ha): 45
Plant response rating, Soybean ([13]; 62 g ai/ha): 0
Plant response rating, Soybean ([13]; 125 g ai/ha): 0
Plant response rating, Soybean ([13]; 250 g ai/ha): 15
Plant response rating, Velvetleaf ([14]; 62 g ai/ha): 0
Plant response rating, Velvetleaf ([14]; 125 g ai/ha): 0
Plant response rating, Velvetleaf ([14]; 250 g ai/ha): 10
Plant response rating, Waterhemp ([15]; 62 g ai/ha): 0
Plant response rating, Waterhemp ([15]; 125 g ai/ha): 10
Plant response rating, Waterhemp ([15]; 250 g ai/ha): 35
Plant response rating, Wheat ([16]; 62 g ai/ha): 15
Plant response rating, Wheat ([16]; 125 g ai/ha): 50
Plant response rating, Wheat ([16]; 250 g ai/ha): 80

Cc1ccc(C2CN(C)C(=O)C2C(=O)Nc2cccc(F)c2F)cc1F (stereo not drawn) [Compound 464]
Plant response rating, Galium ([17]; 31 g ai/ha): 90
Plant response rating, Galium ([17]; 62 g ai/ha): 95
Plant response rating, Galium ([17]; 125 g ai/ha): 95
Plant response rating, Galium ([17]; 250 g ai/ha): 95
Plant response rating, Barnyardgrass ([1]; 31 g ai/ha): 90
Plant response rating, Barnyardgrass ([1]; 62 g ai/ha): 95
Plant response rating, Barnyardgrass ([1]; 125 g ai/ha): 95
Plant response rating, Barnyardgrass ([1]; 250 g ai/ha): 98
Plant response rating, Blackgrass ([2]; 31 g ai/ha): 80
Plant response rating, Blackgrass ([2]; 62 g ai/ha): 85
Plant response rating, Blackgrass ([2]; 125 g ai/ha): 85
Plant response rating, Blackgrass ([2]; 250 g ai/ha): 85
Plant response rating, Corn ([3]; 31 g ai/ha): 50
Plant response rating, Corn ([3]; 62 g ai/ha): 70
Plant response rating, Corn ([3]; 125 g ai/ha): 75
Plant response rating, Corn ([3]; 250 g ai/ha): 90
Plant response rating, Crabgrass, Large ([4]; 31 g ai/ha): 95
Plant response rating, Crabgrass, Large ([4]; 62 g ai/ha): 100
Plant response rating, Crabgrass, Large ([4]; 125 g ai/ha): 100
Plant response rating, Crabgrass, Large ([4]; 250 g ai/ha): 100
Plant response rating, Lambsquarters ([6]; 31 g ai/ha): 45
Plant response rating, Lambsquarters ([6]; 62 g ai/ha): 80
Plant response rating, Lambsquarters ([6]; 125 g ai/ha): 80
Plant response rating, Lambsquarters ([6]; 250 g ai/ha): 90
Plant response rating, Morningglory ([7]; 31 g ai/ha): 10
Plant response rating, Morningglory ([7]; 62 g ai/ha): 20
Plant response rating, Morningglory ([7]; 125 g ai/ha): 20
Plant response rating, Morningglory ([7]; 250 g ai/ha): 40
Plant response rating, Nutsedge, Yellow ([8]; 31 g ai/ha): 0
Plant response rating, Nutsedge, Yellow ([8]; 62 g ai/ha): 0
Plant response rating, Nutsedge, Yellow ([8]; 125 g ai/ha): 0
Plant response rating, Nutsedge, Yellow ([8]; 250 g ai/ha): 0
Plant response rating, Oilseed Rape ([9]; 31 g ai/ha): 80
Plant response rating, Oilseed Rape ([9]; 62 g ai/ha): 85
Plant response rating, Oilseed Rape ([9]; 125 g ai/ha): 80
Plant response rating, Oilseed Rape ([9]; 250 g ai/ha): 90
Plant response rating, Pigweed ([10]; 31 g ai/ha): 45
Plant response rating, Pigweed ([10]; 62 g ai/ha): 45
Plant response rating, Pigweed ([10]; 125 g ai/ha): 60
Plant response rating, Pigweed ([10]; 250 g ai/ha): 70
Plant response rating, Ragweed ([11]; 31 g ai/ha): 70
Plant response rating, Ragweed ([11]; 62 g ai/ha): 70
Plant response rating, Ragweed ([11]; 125 g ai/ha): 75
Plant response rating, Ragweed ([11]; 250 g ai/ha): 90
Plant response rating, Ryegrass, Italian ([12]; 62 g ai/ha): 55
Plant response rating, Ryegrass, Italian ([12]; 125 g ai/ha): 70
Plant response rating, Ryegrass, Italian ([12]; 250 g ai/ha): 85
Plant response rating, Soybean ([13]; 62 g ai/ha): 0
Plant response rating, Soybean ([13]; 125 g ai/ha): 0
Plant response rating, Soybean ([13]; 250 g ai/ha): 0
Plant response rating, Velvetleaf ([14]; 62 g ai/ha): 30
Plant response rating, Velvetleaf ([14]; 125 g ai/ha): 45
Plant response rating, Velvetleaf ([14]; 250 g ai/ha): 60
Plant response rating, Waterhemp ([15]; 62 g ai/ha): 75
Plant response rating, Waterhemp ([15]; 125 g ai/ha): 80
Plant response rating, Waterhemp ([15]; 250 g ai/ha): 95
Plant response rating, Wheat ([16]; 62 g ai/ha): 50
Plant response rating, Wheat ([16]; 125 g ai/ha): 70
Plant response rating, Wheat ([16]; 250 g ai/ha): 90
